In patent US20120077677A1, “Use of 4-phenylbutyric acid and/or salts thereof for enhancing stress tolerance in plants” (BAYER CROPSCIENCE AG, priority 2010, published 2012):

Tests used:
BRSNS (Brassica napus) = test: Drought stress test on potted crop plants, spray application, Brassica napus; assay type: in vivo
Procedure: Seeds of monocotyledonous and dicotyledonous crop plants are placed in sandy loam in wood-fiber pots, covered with soil and cultivated in a greenhouse under good growth conditions. The test plants were treated at the early leaf stage (BBCH10-BBCH13). To ensure uniform water supply before commencement of stress, the potted plants were supplied with the maximum amount of water immediately beforehand by dam irrigation and, after application, transferred in plastic inserts in order to prevent subsequent, excessively rapid drying. The inventive compounds, formulated in the form of wettable powders (WP), wettable granules (WG), suspension concentrates (SC) or emulsion concentrates (EC), were sprayed onto the green parts of the plants as an aqueous suspension at an equivalent water application rate of 600 l/ha with addition of 0.2% wetting agent (agrotin). Substance application was followed immediately by stress treatment of the plants (cold or drought stress). For cold stress treatment, the plants were kept under the following controlled conditions: • “day”: 12 hours with illumination at 8° C. • “night”: 12 hours without illumination at 1° C. Drought stress was induced by gradual drying out under the following conditions: • “day”: 14 hours with illumination at 26° C. • “night”: 10 hours without illumination at 18° C. The duration of the respective stress phases was guided mainly by the state of the untreated, stressed control plants and thus varied from crop to crop. It was ended (by re-irrigating or transfer to a greenhouse with good growth conditions) as soon as irreversible damage was observed on the untreated, stressed control plants. In the case of dicotyledonous crops, for example oilseed rape and soybeans, the duration of the drought stress phase varied between 3 and 5 days, in the case of monocotyledonous crops, for example wheat, barley or corn, between 6 and 10 days. The duration of the cold stress phase varied between 12 and 14 days. […] The intensity of damage was first assessed as a percentage (100%=plants have died, 0%=like control plants). […]

ZEAMX (Zea mays) = test: Drought stress test on potted crop plants, spray application, Zea mays; assay type: in vivo; conditions: dosage 250 g/ha
Procedure: (§1) Seeds of monocotyledonous and dicotyledonous crop plants are placed in sandy loam in wood-fiber pots, covered with soil and cultivated in a greenhouse under good growth conditions. The test plants were treated at the early leaf stage (BBCH10-BBCH13). To ensure uniform water supply before commencement of stress, the potted plants were supplied with the maximum amount of water immediately beforehand by dam irrigation and, after application, transferred in plastic inserts in order to prevent subsequent, excessively rapid drying. The inventive compounds, formulated in the form of wettable powders (WP), wettable granules (WG), suspension concentrates (SC) or emulsion concentrates (EC), were sprayed onto the green parts of the plants as an aqueous suspension at an equivalent water application rate of 600 l/ha with addition of 0.2% wetting agent (agrotin). Substance application was followed immediately by stress treatment of the plants (cold or drought stress). For cold stress treatment, the plants were kept under the following controlled conditions: • “day”: 12 hours with illumination at 8° C. • “night”: 12 hours without illumination at 1° C. […] The intensity of damage was first assessed as a percentage (100%=plants have died, 0%=like control plants). […]

cotton = conditions: cited from earlier work
[1] = test system: TRZAS (Triticum aestivum); test: Drought stress test on potted crop plants, spray application, Triticum aestivum; assay type: in vivo; conditions: dosage 25 g/ha
Procedure: as §1

Row | SMILES | EF (BRSNS), efficacy = percentage reduction in the intensity of damage (BRSNS (Brassica napus); dosage 25 g/ha) [%] | EF (ZEAMX), efficacy = percentage reduction in the intensity of damage (ZEAMX (Zea mays)) [%] | EF (BRSNS), efficacy = percentage reduction in the intensity of damage (BRSNS (Brassica napus); dosage 250 g/ha) [%] | plant growth (cotton; application to cottonseeds, hence oil content of the harvested material) | translocation of mono- and disaccharides (cotton; cotton, seed dressing) | protein content of the leaves (cotton; cottonseed dressing, early growth stages, also enhances the yields) | flower formation and the maturing of cotton plants (cotton; cottonseed dressing, hence enhances the yields) | EF (TRZAS), efficacy = percentage reduction in the intensity of damage [1] [%]
1 | O=C(O)CCCc1ccccc1 [4-phenylbutyric acid] | >5 | >5 | – | – | – | – | – | –
2 | O=C([O-])CCCc1ccccc1.[Na+] [Compound I-2, Sodium 4-phenylbutyrate] | – | – | >5 | increases | positively influenced | increases | enhances | –
3 | O=C(O)CCCc1ccccc1.OCCN(CCO)CCO [Compound I-22, Tris-N,N,N-(2-hydroxy-1-yl)ammonium 4-phenylbutyrate] | >5 | – | – | – | – | – | – | >5
